Source: patent US6469061B1, “Jasmonate pharmaceutical composition for treatment of cancer” (priority 2001, dated 2002)
Several values for one entry are separate records, joined by “and”; a condition that tells them apart may be missing. Equal values may be shown once.

Experiments:
[1] = tested on: Molt-4, SK-28, LNCaP and MCF7 cells; test: CellTiter 96 cytotoxicity across the four transformed cell lines; assay type: cell-based, human; conditions: 0.5-3 mM, 24 hours
Experimental: (§1) All cell lines were purchased from ATCC (Rockville, Md.). […] JA and MJ were dissolved in ethanol.
Results are presented as means ± standard deviation.

[2] = tested on: normal lymphocytes from peripheral blood of healthy donors; test: CellTiter 96 cytotoxicity on normal lymphocytes stimulated by TPA/PHA; assay type: cell-based, human; conditions: 1 mM or 3 mM, 24 hours
Source text: Normal lymphocytes were separated from peripheral blood, as follows: Mononuclear cells (MNC) from venous blood of healthy donors were collected by Ficoll-Hypaque (Phamacia Fine Chemicals, Uppsala, Sweden) density gradient centrifugation. The resultant mononuclear cell preparation was allowed to adhere to plastic dishes to remove contaminant macrophages. The non-adherent peripheral blood lymphocytes were selected for use.

[3] = tested on: Molt-4 cells; test: Trypan blue exclusion (cell death versus suppression of proliferation), Molt-4; assay type: cell-based, human
Source text: (§2) Since the same number of cells was aliquoted into each well initially, decreased optical density as measured in wells containing treated cells (above) reflects cellular death and/or decrease in the rate of proliferation. To distinguish between these two possibilities we employed an additional cytotoxicity assay which detects cell death by lack of trypan blue exclusion.

[4] = tested on: MCF7 human breast carcinoma cell line; test: CellTiter 96 Aqueous Non-Radioactive Cell Proliferation Assay (MTS cytotoxicity), MCF7; assay type: cell-based; conditions: MCF7 cells, 0.5-3 mM tested, 24 hours
Experimental: as §1

[5] = tested on: LNCaP cells; test: Trypan blue exclusion (cell death versus suppression of proliferation), LNCaP; assay type: cell-based, human
Source text: as §2

[6] = tested on: SK-28 human melanoma cells; test: CellTiter 96 Aqueous Non-Radioactive Cell Proliferation Assay (MTS cytotoxicity), SK-28; assay type: cell-based; conditions: SK28 cells, 0.5-3 mM tested, 24 hours
Experimental: as §1

[7] = tested on: MCF7 cells; test: Trypan blue exclusion (cell death versus suppression of proliferation), MCF7; assay type: cell-based, human
Source text: as §2

[8] = tested on: SK28 cells; test: Trypan blue exclusion (cell death versus suppression of proliferation), SK28; assay type: cell-based, human
Source text: as §2

[9] = tested on: LNCaP androgen-responsive human prostate adenocarcinoma cell line; test: CellTiter 96 Aqueous Non-Radioactive Cell Proliferation Assay (MTS cytotoxicity), LNCaP; assay type: cell-based; conditions: LNCaP cells, 0.5-3 mM tested, 24 hours
Experimental: as §1

[10] = tested on: Molt-4 human T lymphoblastic leukemia cell line; test: CellTiter 96 Aqueous Non-Radioactive Cell Proliferation Assay (MTS cytotoxicity), Molt-4; conditions: Molt-4 cells, 24 hours
Experimental: All cell lines were purchased from ATCC (Rockville, Md.). All reagents were purchased from Sigma Chemicals (St. Louis, Mo.) unless otherwise stated. JA and MJ were dissolved in ethanol.
LNCaP, MCF7 and SK-28 cells (at 4×10^3/well) and Molt-4 cells (at 1.5×10^4/well) were seeded in 96-well plates and allowed to adhere overnight. Plant stress hormone at increasing concentrations was added as indicated below, and toxicity was measured after 24 hours using the CellTiter 96 Aqueous Non-Radioactive Cell Proliferation Assay (Promega, Madison, Wis.); an assay in which viable cells produce a colored product (for details on the protocol of this assay, see below). This assay is quantitative, as the amount of color produced is read using an ELISA reader.
Each cell line was incubated with each of these hormones at a concentration ranging from 0.5-3 mM for 24 hours, after which cytotoxicity was measured. The statistical significance of the results was determined (where appropriate) by two-tailed student's t-test, n=3.
This allowed for development of a color reaction in which dehydrogenases reduce the MTS in metabolically active cells. Since the cells were not washed before the addition of MTS, there were no potentially loosely adherent or non-adherent cells that could have been problematic. Soluble MTS formazan product was measured at a wavelength of 490 nm using a CERES 900 HDI ELISA reader (Bio-Tek Instruments, Inc, Highland Park, Vt.). Optical density is directly proportional to the number of living cells in culture. Cytotoxicity (%) was calculated in the following way: [(OD of control cells−OD of drug-treated cells)/OD of control cells]×100.
Normal lymphocytes and Molt-4 cells were seeded (at 1.5×10^4/well) in 96-well plates.
Jasmonates or salicylic acid were added at a concentration of 1 mM or 3 mM, and cells were incubated for 24 hours. Optical density representing viable cells was determined by the CellTiter 96 Aqueous Non-Radioactive Cell Proliferation Assay.

[11] = tested on: Molt-4 cells; test: Fluorescence microscopy (DAPI) of nuclear morphology in Molt-4 cells; assay type: cell-based, human
Experimental: To confirm this fact, Molt-4 cells were treated with JA (2 mM) and MJ (0.5 mM) for 14 hours, and analyzed by fluorescence microscopy in order to detect essential morphological characteristics of apoptosis such as condensation and fragmentation of chromatin.
Referring to FIG. 3, fluorescence microscopy pictures are shown depicting changes in cellular morphology within the nuclei of Molt-4 cells, after treatment with plant stress hormones JA or MJ. 5×10^5 cells/sample were harvested, then fixated by addition of a solution of phosphate-buffered saline (PBS) containing [3% paraformaldehyde and 0.1% Triton X-100], for one hour. Cells were stained for 10 minutes with DAPI (1 μg/ml). Nuclei were analyzed by fluorescence microscopy, (using a fluorescence microscope model. A×70 TRF, made by Olympus Optical, Japan) at a magnification of 1:400. Characteristic apoptotic nuclei are marked with arrows.

[12] = tested on: Caspase-3 activity in Molt-4 cells; test: Caspase-3 (CPP32) protease assay in treated Molt-4 cells; assay type: cell-based, human; conditions: for Caspase-3 activity: all concentrations and times (2, 4, 14 hours), P<0.05
Experimental: Elevated levels of Caspase-3 are a specific marker of the apoptosis process (Porter and Janicke, Cell Death Differ., 6, 99-104, 1999). In order to definitively determine that the cause of cell death was apoptosis, the level of Caspase-3 activity was measured in cells after treatment with JA and MJ. […] Briefly, 2×10^6 cells were lysed and resuspended in 100 μL of reaction buffer containing a fluorogenic Caspase-3 (CPP32) substrate Ac-DEVD-AMC. Reactions were incubated at 37° C. for 2 hours and samples were assayed at excitation wavelength of 360 nm and emission wavelength of 460 nm, in the FL600 Microplate Fluorescence Reader (Bio-Tek Instruments, Winooski, Vt., USA).

[13] = tested on: EL-4 lymphoma cells; test: EL-4 lymphoma model in mice, survival; assay type: in vivo, mice (strain C57BL)
Experimental: Syngeneic lymphoma cells were injected into a test group and a control group of mice (strain C57BL). The injections were administered either sub-cutaneously, or intra-peritoneally. Methyl jasmonate was administered orally, by injection directly into the resultant tumor or into the peritoneum, and the effect on tumor progression and on the rate of survival, were analyzed.
400,000 EL-4 lymphoma cells were injected intra-peritoneally into 20 test mice, or 19 control mice, of the C57BL strain.
Preliminary experiments had shown that methyl jasmonate at a dosage of 236-472 mg/kg. body weight was appropriate for prevention of tumoral growth. Therefore, methyl jasmonate was dissolved in a lipid carrier (0.4% Lipofundin, manufactured by B. Brown, Melsunger, Germany) and administered orally at a dosage of 236 mg/kg body weight. Administration was daily, via the drinking water, beginning with the day of injection of the lymphoma cells.
19 control mice received the lipid carrier only (0.4% Lipofundin), with no methyl jasmonate dissolved within.
The survival time of each group of mice was measured (in days), and analyzed.
Each of these tests weighs numerically the importance of a death within one of the two groups of mice, on a given day, compared to the number of surviving mice in the whole.

SMILES | Order of sensitivity of the cell lines [1] | Cytotoxicity in normal lymphocytes [2] | Kind of damage (cell death or inhibition of cell proliferation) [3] | Concentrations at which cytotoxicity was significant, P<0.05 [4] [µM] | Kind of damage (cell death or inhibition of cell proliferation) [5] | Concentrations at which cytotoxicity was significant, P<0.05 [6] [µM] | Kind of damage (cell death or inhibition of cell proliferation) [7] | Kind of damage (cell death or inhibition of cell proliferation) [8] | Concentrations at which cytotoxicity was significant, P<0.05 [9] [µM] | Cytotoxicity ([10]; 3 mM) [%] | Concentrations at which cytotoxicity was significant, P<0.05 ([10]; 0.5-3 mM tested) | Nuclear morphology (apoptotic changes) ([11]; 2 mM for 14 hours) | Caspase-3 activity [12] | Level of Caspase-3 ([12]; incubation for 2 hours) | Plateau of survival (cumulative percentage of survival) ([13]; C57BL mice, EL-4 cells i.p., 236 mg/kg orally daily via drinking water, reached on the 33rd day, control 20%, p=0.01492 Log-Rank, p=0.00953 Cox-Mantel) [%] | Dosage appropriate for prevention of tumoral growth ([13]; preliminary experiments in mice) | Concentrations at which cytotoxicity was significant, P<0.01 [4] [µM] | Cytotoxicity ([10]; 0.5 mM) | Concentrations at which cytotoxicity was significant, P<0.01 ([10]; 0.5-3 mM tested) | Nuclear morphology (apoptotic changes) ([11]; 0.5 mM for 14 hours)
CC/C=C\C[C@H]1C(=O)CC[C@@H]1CC(=O)O [JA, Jasmonic acid] | Molt-4>SK-28>LNCaP>MCF7 | do not harm normal cells | cell death | 3000 | inhibition of cell proliferation | ≥ 2000 | inhibition of cell proliferation | inhibition of cell proliferation | ≥ 2000 | 90 | ≥ 1000 µM | induced condensation and fragmentation of chromatin | increased Caspase-3 activity significantly | didn't induce an elevation |  |  |  |  |  | 
CC/C=C\CC1C(=O)CCC1CC(=O)OC (stereo not shown) [MJ, methyl jasmonate] | Molt-4>LNCaP>SK28>MCF7 | do not harm normal cells | death |  | death | ≥ 2000 | death | death | ≥ 2000 |  |  |  | increased Caspase-3 activity significantly |  | 50 | 236-472 mg/kg. body weight | 3000 | 87.52% and 90% | all concentrations | completely destroyed nuclear morphology in almost all cells
O=C([O-])c1ccccc1O.[Na+] [SA, Sodium salicylate, reference compound] |  |  | inhibition of cell proliferation |  | inhibition of cell proliferation |  | inhibition of cell proliferation | inhibition of cell proliferation |  |  | all concentrations |  |  |  |  |  |  |  |  | 
